{"source": "EPA's ToxValDB 9.5 (doi:10.2903/j.efsa.2009.179r)", "key": {"Apis mellifera": {"system": "Apis mellifera", "conditions": "acute; duration: 48 hours; dermal; mortality"}, "Canidae": {"system": "Canidae", "conditions": "Dog Other, clinical signs"}, "Daphnia magna": {"system": "Daphnia magna", "conditions": "chronic/long-term; duration: 21 days; reproduction"}, "Oryctolagus sp.": {"system": "Oryctolagus sp.", "conditions": "acute; oral; mortality"}, "Rattus norvegicus": {"system": "Rattus norvegicus", "conditions": "reproduction developmental"}, "Aphidius rhopalosiphi": {"system": "Aphidius rhopalosiphi", "test": "LR50; higher = less toxic", "conditions": "not reported; mortality"}}}
{"smiles": "C[N+](C)(C)CCCl.[Cl-]", "note": "[Chlormequat chloride]", "values": [{"measurement": "LD50", "setting": "Apis mellifera", "result": "> 65.2", "unit": "µg/piece"}, {"measurement": "NOAEL", "setting": "Canidae; chronic, duration: 1 years, oral", "result": 4, "unit": "mg/kg-day"}, {"measurement": "NOAEL", "setting": "Canidae; short-term, duration: 4 weeks", "result": 9, "unit": "mg/kg-day"}, {"measurement": "LC50", "setting": "Coturnix japonica; acute, oral, diet, mortality", "result": "> 310", "unit": "mg/kg-day"}, {"measurement": "LD50", "setting": "Coturnix japonica; acute, oral, mortality", "result": 441, "unit": "mg/kg-day"}, {"measurement": "NOEC", "setting": "Coturnix japonica; reproduction developmental", "result": 54.8, "unit": "mg/kg-day"}, {"measurement": "NOEC", "setting": "Daphnia magna", "result": 2.4, "unit": "mg/L"}, {"measurement": "LC50", "setting": "Oncorhynchus mykiss; acute, duration: 96 hours, mortality", "result": "> 100", "unit": "µg/mL"}, {"measurement": "NOEC", "setting": "Oncorhynchus mykiss; chronic/long-term, duration: 21 days, growth", "result": 43.1, "unit": "mg/L"}, {"measurement": "LD50", "setting": "Oryctolagus sp.", "result": 115, "unit": "mg/kg-day"}, {"measurement": "NOAEL", "setting": "Rattus norvegicus; body weight", "result": 41, "unit": "mg/kg-day"}, {"measurement": "NOAEL", "setting": "Rattus norvegicus; reproduction", "result": 74, "unit": "mg/kg-day"}, {"measurement": "LC50", "setting": "Tagia sp.; acute, duration: 14 days, mortality", "result": 320, "unit": "mg/kg"}, {"measurement": "NOEC", "setting": "Tagia sp.; chronic/long-term, duration: 56 days", "result": 680, "unit": "mg/kg"}, {"measurement": "LR50", "setting": "Aphidius rhopalosiphi", "result": "> 2200", "unit": "g/ha"}]}
